Experimental data as given in US4123540A, “Isoclavulanic acid as an antibacterial and a β-lactamase inhibitor” (Beecham Group Limited, priority 1974, dated 1978).
Structures can show the parent of a compound that is named as a salt.

Legend:
[1] = target: T1, β-lactamase produced by Escherichia coli JT4 (Escherichia coli, UniProt P62593); experiment: β-lactamase inhibition assay (Description 1); assay type: biochemical
T1 construct: This cell suspension was then disrupted in an MSE ultrasonic disintegrator at 4° C; endogenous in cells; host or cells: Escherichia coli JT4 (ampicillin-resistant, R-factor), supernatant of sonicated cells
Protocol: During this time, enzyme inhibition or inactivation occurs. Substrate (benzylpenicillin) is then added and incubation continued for 30 minutes at 37° C. The amount of enzymic degradation of the substrate to penicilloic acid is determined by the hydroxylamine assay for penicillin. The amount of β-lactamase used is such as to give 75% hydrolysis of the benzylpenicillin in 30 minutes at 37° C.
(§1) The extent of hydrolysis is a reflection of the amount of enzyme remaining uninhibited.
The β-lactamase produced by Escherichia coli JT4 is used as an enzyme. […] Other similar R-factor controlled β-lactamases may be used if desired.
The culture maintained on nutrient agar slopes, is inoculated into 400 ml. of sterile Tryptone medium contained in a 2 liter conical flask. This medium has the following composition Tryptone (Oxoid) 32 g/l, yeast extract (Oxoid) 20 g/l, NaCl 5 g/l and CaCl2 6H2 O 2.2 g/l. The final pH was adjusted to 7.4 with dilute NaOH. The flask is shaken at 25° C for 20 hours on a rotary shaker at 240 r.p.m. […]
Suitable dilutions of the inhibitor preparation and β-lactamase solution are mixed and incubated at 37° C for 15 minutes (Test). […] The absorption of the final solutions is measured in an E.E.L. Colorimeter or a Spectrophotometer at 490 nm against the reagent blank.
The percentage inhibition of the β-lactamase is calculated as follows […]

[2] = target: T2, β-lactamase of Staphylococcus aureus (Russell) (Staphylococcus aureus, UniProt P00807); experiment: β-lactamase inhibition assay; assay type: biochemical; conditions: standard enzyme inhibitory assay (Example 49); read-out: I50 (converted)
T2 construct: endogenous in cells; host or cells: Staphylococcus aureus (Russell)
Protocol: Solutions containing clavulanic acid (culture filtrate, samples from isolation procedure and the like) are incubated for 15 minutes with a β-lactamase preparation in 0.05M phosphate buffer at pH 7 and 37° C. During this time, enzyme inhibition or inactivation occurs. Substrate (benzylpenicillin) is then added and incubation continued for 30 minutes at 37° C. The amount of enzymic degradation of the substrate to penicilloic acid is determined by the hydroxylamine assay for penicillin. The amount of β-lactamase used is such as to give 75% hydrolysis of the benzylpenicillin in 30 minutes at 37° C.
as §1
Suitable dilutions of the inhibitor preparation and β-lactamase solution are mixed and incubated at 37° C for 15 minutes (Test). A control with buffer in place of inhibitor preparation is also incubated. Benzylpenicillin solution (substrate) is then added to test and control mixtures, incubation continued for a further 30 minutes at 37° C. […] 6 ml. of hydroxylamine reagent are added to all tests, controls and blanks and are allowed to react for 10 minutes at room temperature prior to the addition of 2 ml of ferric ammonium sulphate reagent. The absorption of the final solutions is measured in an E.E.L. Colorimeter or a Spectrophotometer at 490 nm against the reagent blank.

[3] = test system: Staphylococcus aureus Russell; experiment: MIC, microtitre technique (Example 53); assay type: cell-based
Text: (§2) The results were obtained by the microtitre technique with an inoculum of 1/500 of overnight broth.

Klebsiella aerogenes E70 = experiment: MIC, microtitre technique (Example 53); assay type: cell-based
Text: as §2

[4] = hydrolysis of ester in phosphate buffer pH 7; assay type: physicochemical; conditions: 1 mg/ml., 37° C, 0.05M phosphate buffer at pH 7, followed over 2 hours by paper chromatography
Protocol: The reaction was followed by paper chromatography (bioautographic system). Using the butanol/ethanol/water system to follow the reaction over a period of 2 hours the zone of the methyl ester at Rf 0.79 decreased in size as the zone of clavulanic acid at Rf 0.12 increased.

[5] = test system: Staphylococcus aureus(Russell); experiment: MIC / synergism, microtitre method (Example 42); assay type: cell-based; conditions: synergist (clavulanic acid sodium salt) added at 1 μg/ml. instead of 5 μg/ml.
Klebsiella aerogenes A = experiment: MIC / synergism, microtitre method (Example 42); assay type: cell-based; conditions: method of Example 42 (μg/ml)
[6] = test system: Klebsiella aerogenes E 70; experiment: MIC / synergism, microtitre method (Example 42); assay type: cell-based; conditions: method of Example 42 (μg/ml)
Klebsiella aerogenes 62 = experiment: MIC / synergism, microtitre method (Example 42); assay type: cell-based; conditions: method of Example 42 (μg/ml)
[7] = test system: Staphylococcus aureus (Russell); experiment: MIC / synergism with methyl ester (Example 32); assay type: cell-based; conditions: in the presence of 1.0 μg/ml. clavulanic acid methyl ester
Proteus mirabilis C889 = experiment: MIC / synergism with methyl ester (Example 32); assay type: cell-based; conditions: in the presence of 5 μg/ml. clavulanic acid methyl ester
[8] = head prints sodium clavulanate, title sodium isoclavulanate, inoculum 1/500

T1 sequence (P62593 24-286 limits assumed): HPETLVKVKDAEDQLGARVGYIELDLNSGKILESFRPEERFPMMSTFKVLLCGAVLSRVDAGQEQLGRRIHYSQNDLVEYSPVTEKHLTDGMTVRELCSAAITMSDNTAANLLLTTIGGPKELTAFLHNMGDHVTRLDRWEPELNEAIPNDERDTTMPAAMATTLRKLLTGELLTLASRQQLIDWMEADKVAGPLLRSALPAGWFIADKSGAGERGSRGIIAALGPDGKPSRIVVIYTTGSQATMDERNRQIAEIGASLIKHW
T2 sequence (P00807 25-281): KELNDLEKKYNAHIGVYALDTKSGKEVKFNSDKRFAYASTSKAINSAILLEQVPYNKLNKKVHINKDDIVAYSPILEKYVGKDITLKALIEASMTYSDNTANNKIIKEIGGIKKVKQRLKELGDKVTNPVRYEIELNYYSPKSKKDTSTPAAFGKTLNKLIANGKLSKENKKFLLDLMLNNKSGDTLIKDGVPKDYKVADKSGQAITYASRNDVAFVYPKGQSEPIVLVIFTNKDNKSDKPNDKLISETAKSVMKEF

In the case of `O=C(COc1ccccc1)OC/C=C1\O[C@@H]2CC(=O)N2[C@H]1C(=O)OCc1ccccc1` [Benzyl phenoxyacetylclavulanate], the IC50 ([1]; benzylpenicillin substrate, 15 min preincubation, pH 7, 37° C) is reported as 5.9 µM and the IC50 [2] is reported as 17.7 µM.

`O=C(O)[C@H]1/C(=C/CO)O[C@@H]2CC(=O)N21` [clavulanic acid sodium salt, 3-(β-hydroxyethylidine)-7-oxo-4-oxa-1-azabicyclo [3,2,0]heptane-2-carboxylic acid sodium salt] showed an MIC ([3]; Staphylococcus aureus, compound alone, inoculum of 1/500 of overnight broth) of 125 µg/mL and an MIC (Klebsiella aerogenes E70; Klebsiella aerogenes, E70) of 500 µg/mL.

For `COC(=O)[C@H]1/C(=C/CO)O[C@@H]2CC(=O)N21` [clavulanic acid methyl ester], the “hydrolysis of the ester to clavulanic acid” value [4] was “Slow conversion of the ester to clavulanic acid”.

In the case of `O=C(Cc1cccs1)N[C@@H]1C(=O)N2C(C(=O)[O-])=C(C[n+]3ccccc3)CS[C@H]12` [Cephaloridine, cephaloridine], the “Minimum Inhibitory Concentration of cephaloridine in presence of synergist” value [5] is reported as “Same value”.

With `CC1(C)S[C@@H]2[C@H](NC(=O)[C@H](N)c3ccccc3)C(=O)N2[C@H]1C(=O)O` [Ampicillin, ampicillin] the “MIC of Ampicillin + 5 μg/ml of Benzyl Ester of clavulanic acid” value (shortened to “MIC … of Benzyl Ester of clavulanic acid”) (Klebsiella aerogenes A) was 1.9, the “MIC of Ampicillin + 5 μg/ml of Methyl Ester of clavulanic acid” value (from here on “MIC … of Methyl Ester of clavulanic acid”) (Klebsiella aerogenes A) was 1.9 and the “MIC … of Benzyl Ester of clavulanic acid” value [6] was 3.9. For the same compound, the “MIC … of Methyl Ester of clavulanic acid” value [6] was 3.9, the “MIC … of Benzyl Ester of clavulanic acid” value (Klebsiella aerogenes 62) was 3.9 and the “MIC … of Methyl Ester of clavulanic acid” value (Klebsiella aerogenes 62) was 3.9. For the same compound, the “MIC of Ampicillin + 1μg/ml sodium clavulanate” value [3, 8] was 3.9 µg/mL, the “MIC of Ampicillin + 5μg/ml sodium clavulanate” value [3, 8] was 0.78 µg/mL and the “MIC of Ampicillin + 20μg/ml sodium clavulanate” value [3, 8] was 0.39 µg/mL. The “MIC of Ampicillin + 1μg/ml sodium clavulanate” value (Klebsiella aerogenes E70; [8]) was 15.6 µg/mL, the “MIC of Ampicillin + 20μg/ml sodium clavulanate” value (Klebsiella aerogenes E70; [8]) was 6.2 µg/mL and the “minimum inhibitory concentration (M.I.C.) of antibiotic in presence of synergist” value [7] was < 0.4 µg/mL. The “minimum inhibitory concentration (M.I.C.) of antibiotic in presence of synergist” value (Proteus mirabilis C889) was 31 µg/mL.

For `O=C(O)[C@H]1/C(=C/CO)O[C@@H]2CC(=O)N21` [clavulanic acid, Z-(2R,5R)-3-(β-hydroxyethylidene)-7-oxo-4-oxa-1-azabicyclo[3,2,0]heptane-2-carboxylic acid], the “mode of inhibition of the β-lactamase” value [1] was “progressively and irreversibly inhibits”.
